The record followed here is patent publication US11208399B2, “NLRP3 inflammasome inhibitors” (Novartis AG, priority 2019, dated 2021).

SMILES strings stand for the structures. Structures can show the parent of a compound that is named as a salt.

One experiment relates to NLRP3 inflammasome. The experiment can be described thus: IL-1β secretion assay in PMA-differentiated THP-1 cells, nigericin-activated (HTRF). It is filed as cell-based. The following applies: Homo sapiens, 15 μM nigericin, 3 hours, read-out: IL-1β IC50. On the procedure: 10 μL supernatant was removed, and IL-1p levels were monitored using an HTRF assay (CisBio, #621L1PEC) according to manufacturers' instructions. Viability and pyroptosis was monitored with the addition of PrestoBlue cell viability reagent (Life Technologies, #A13261) directly to the cell culture plate.
IC50 values were calculated from the plot of percentage of inhibition versus the inhibitor concentration by a logistics fit according to: y=A2+(A1−A2)/(1+(x/IC50)^p) where y is the %-inhibition at the inhibitor concentration, x. A1 is the lowest inhibition value, i.e. 0%, and A2 the maximum inhibition value, i.e. 100%. The exponent, p, is the Hill coefficient. The curve fitting was conducted with an internally developed software suite.
NLRP3-dependent IL-1β secretion was stimulated in PMA-differentiated THP-1 cells by the addition of nigericin, and cytokines were measured in the […] after 3 hours. As discussed above, activation of the NLRP3 inflammasome requires both an NF-kB-dependent priming step and the addition of a NLRP3 activator.
Background: TR-FRET usually uses a lanthanide donor and a delayed reading to cut background.

Experiment [1] relates to NF-kB-dependent TNF-α secretion. The experiment can be described thus: TNF-α secretion assay in THP-1 cells (counter screen, HTRF). It is filed as cell-based. To be noted: Homo sapiens, Pam3CSK4-stimulated, 3 hours. The method, then: Monocytic THP-1 cells were maintained according to providers' instructions in RPMI media as described above. […] Experimental compounds were prepared and added as described above. TNF-α secretion was triggered by the addition of either 1 μg/mL LPS (Sigma, #L4391) or 100 ng/mL Pam3CSK4 (Invivogen, #tlrl-pms) depending on the experiment, and cells were incubated for 3 hours. 10 μL supernatant was removed, and TNF-α levels were monitored using an HTRF assay (CisBio, #62TNFPEC) according to manufacturers' instructions. Viability was monitored as described above.
IC50 values were calculated from the plot of percentage of inhibition versus the inhibitor concentration by a logistics fit according to: y=A2+(A1−A2)/(1+(x/IC50)^p) where y is the %-inhibition at the inhibitor concentration, x. A1 is the lowest inhibition value, i.e. 0%, and A2 the maximum inhibition value, i.e. 100%. The exponent, p, is the Hill coefficient. The curve fitting was conducted with an internally developed software suite. […]
Background: Counterscreens check selectivity or assay interference.

In general, IC50 refers to the concentration that gives 50% inhibition. Take `Cc1cc(-c2c(C)cc(C(F)(F)F)cc2O)nnc1NC1CCC(=O)N(C)C1` (stereo not shown) [Ex 99, 5-((6-(2-Hydroxy-6-methyl-4-(trifluoromethyl)phenyl)-4-methylpyridazin-3-yl)amino)-1-methylpiperidin-2-one]: the figures for the IC50 (in the experiment on NLRP3 inflammasome; in experiment [1]) were 75 nM and above 100000 nM, respectively.
For `Cc1cc(C(F)(F)F)cc(O)c1-c1ccc(N[C@H]2CC[C@H](O)[C@@H]2O)nn1` [Ex 89a, (1S,2R,3S)-3-((6-(2-Hydroxy-6-methyl-4-(trifluoromethyl)phenyl)pyridazin-3-yl)amino) cyclopentane-1,2-diol], in that order: 59.7 nM and above 100000 nM.
The matching figures for `Cc1cc(C(F)(F)F)cc(O)c1-c1ccc(NC[C@@](C)(O)CO)nn1` [Ex 88b, (R)-3-((6-(2-Hydroxy-6-methyl-4-(trifluoromethyl)phenyl)pyridazin-3-yl)amino)-2-methylpropane-1,2-diol]: 60.5 nM and above 100000 nM.
The matching figures for `Cc1cc(C(F)(F)F)cc(O)c1-c1ccc(N[C@H]2CCC[C@H](O)C2)nn1` [Ex 57, 2-(6-(((1S,3S)-3-Hydroxycyclohexyl)amino)pyridazin-3-yl)-3-methyl-5-(trifluoromethyl)phenol]: 224 nM and 84000 nM.
Turning to `C[C@]1(O)C[C@@H](Nc2cc(C(F)(F)F)c(-c3ccc(C(F)(F)F)cc3O)nn2)C1` [Ex 66, 2-(6-(((cis)-3-Hydroxy-3-methylcyclobutyl)amino)-4-(trifluoromethyl)pyridazin-3-yl)-5-(trifluoromethyl)phenol], the values for the IC50 (in the experiment on NLRP3 inflammasome; in experiment [1]) were 187 nM and above 33000 nM, respectively.
For `Cc1cc(C(F)(F)F)cc(O)c1-c1ccc(OCC(C)(C)O)nn1` [Ex 19, 2-(6-(2-Hydroxy-2-methylpropoxy)pyridazin-3-yl)-3-methyl-5-(trifluoromethyl)phenol], in that order: 93.6 nM and above 100000 nM.
The matching figures for `Cc1cc(C(F)(F)F)cc(O)c1-c1ccc(N[C@H]2C[C@](O)(C(F)(F)F)C2)nn1` [Ex 67, 2-(6-(((cis)-3-Hydroxy-3-(trifluoromethyl)cyclobutyl)amino)pyridazin-3-yl)-3-methyl-5-(trifluoromethyl)phenol]: 40.1 nM and 46000 nM.
The matching figures for `Cc1cc(C(F)(F)F)cc(O)c1-c1ccc(NC[C@@H](F)C(C)(C)O)nn1` [Ex 60, (R)-2-(6-((2-Fluoro-3-hydroxy-3-methylbutyl)amino)pyridazin-3-yl)-3-methyl-5-(trifluoromethyl)phenol]: 140 nM and above 100000 nM.
For the molecule `Cc1cc(C(F)(F)F)cc(O)c1-c1ccc(N[C@@H]2CC[C@@H](O)[C@H]2O)nn1` [Ex 89b, (1R,2S,3R)-3-((6-(2-Hydroxy-6-methyl-4-(trifluoromethyl)phenyl)pyridazin-3-yl)amino)cyclopentane-1,2-diol], the IC50 was 182 nM in the experiment on NLRP3 inflammasome and above 100000 nM in experiment [1].
The matching figures for `Cc1cc(C(F)(F)F)cc(O)c1-c1ccc(N[C@@H]2CCCN3CCC[C@H]23)nn1` [Ex 83a, 3-Methyl-2-(6-(((8R,8aR)-octahydroindolizin-8-yl)amino)pyridazin-3-yl)-5-(trifluoromethyl) phenol]: 0.8 nM and above 100000 nM.
For `Cc1cc(C(F)(F)F)cc(O)c1-c1ccc(NC2(C)CCCN(C)C2)nn1` (stereo not shown) [Ex 52, 2-(6-((1,3-Dimethylpiperidin-3-yl)amino)pyridazin-3-yl)-3-methyl-5-(trifluoromethyl)phenol TFA-salt], in that order: 186 nM and above 100000 nM.
Turning to `C[C@]1(O)C[C@@H](Nc2cc(C(F)(F)F)c(-c3ccc(Cl)cc3O)nn2)C1` [Ex 69, 5-Chloro-2-(6-(((cis)-3-hydroxy-3-methylcyclobutyl)amino)-4-(trifluoromethyl)pyridazin-3-yl)phenol], the IC50 in the experiment on NLRP3 inflammasome is 431 nM; in experiment [1], above 33000 nM.
Take `Cc1cc(C(F)(F)F)cc(O)c1-c1ccc(N[C@@H]2CCCN(C)C2=O)nn1` [Ex 59, (R)-3-((6-(2-Hydroxy-6-methyl-4-(trifluoromethyl)phenyl)pyridazin-3-yl)amino)-1-methylpiperidin-2-one]: the figures for the IC50 (with NLRP3 inflammasome; in experiment [1]) were 35.9 nM and above 100000 nM, respectively.
For `Cc1cc(N[C@H]2C[C@@](C)(O)C2)nnc1-c1ccc(OC(F)(F)F)cc1O` [Ex 81, 2-(6-(((cis)-3-Hydroxy-3-methylcyclobutyl)amino)-4-methylpyridazin-3-yl)-5-(trifluoromethoxy)phenol], in that order: 130 nM and above 100000 nM.
With `Cc1cc(-c2c(C)cc(C(F)(F)F)cc2O)nnc1N[C@@H]1CCC[N+](C)([O-])C1` (stereo partly drawn) [Ex 104, (3R)-3-((6-(2-Hydroxy-6-methyl-4-(trifluoromethyl)phenyl)-4-methylpyridazin-3-yl)amino)-1-methylpiperidine 1-oxide TFA-salt], the results for the IC50 (in the experiment with NLRP3 inflammasome; in experiment [1]) were 59 nM and above 100000 nM, respectively.
In the case of `Cc1cc(C(F)(F)F)cc(O)c1-c1ccc(NCC2COCCN2C)nn1` (racemic) [Ex 77, (rac)-3-Methyl-2-(6-(((4-methylmorpholin-3-yl)methyl)amino)pyridazin-3-yl)-5-(trifluoromethyl)phenol], the figures for the IC50 (in the experiment with NLRP3 inflammasome; in experiment [1]) were 61.9 nM and above 100000 nM, respectively.
Turning to `Cc1cc(C(F)(F)F)cc(O)c1-c1ccc(NC[C@](C)(O)C(F)(F)F)nn1` [Ex 78, (S)-3-Methyl-2-(6-((3,3,3-trifluoro-2-hydroxy-2-methylpropyl)amino)pyridazin-3-yl)-5-(trifluoromethyl)phenol HCl-salt], the IC50 is 198 nM in the experiment on NLRP3 inflammasome and above 100000 nM in experiment [1].
The matching figures for `Cc1cc(C(F)(F)F)cc(O)c1-c1ccc(NC[C@@H](O)C(C)C)nn1` [Ex 90a, (S)-2-(6-((2-Hydroxy-3-methylbutyl)amino)pyridazin-3-yl)-3-methyl-5-(trifluoromethyl)phenol]: 64.2 nM and above 33000 nM.
For the molecule `Cc1cc(C(F)(F)F)cc(O)c1-c1ccc(N[C@@H]2CCC[C@H](O)C2)nn1` [Ex 3, 2-(6-(((1R,3S)-3-Hydroxycyclohexyl)amino)pyridazin-3-yl)-3-methyl-5-(trifluoromethyl)phenol], the IC50 in the experiment with NLRP3 inflammasome was 25.5 nM; in experiment [1] it was above 100000 nM.
In the case of `CC(C)(O)CNc1ccc(-c2c(O)cc(C(F)(F)F)cc2Cl)nn1` [Ex 30, 3-Chloro-2-(6-((2-hydroxy-2-methylpropyl)amino)pyridazin-3-yl)-5-(trifluoromethyl)phenol], the IC50 in the experiment on NLRP3 inflammasome is 214 nM; in experiment [1] it was above 100000 nM.
The matching figures for `OCCNc1ccc(-c2c(O)cc(C(F)(F)F)cc2Cl)nn1` [Ex 37, 3-Chloro-2-(6-((2-hydroxyethyl)amino)pyridazin-3-yl)-5-(trifluoromethyl)phenol]: 381 nM and above 100000 nM.
The matching figures for `Cc1cc(C(F)(F)F)cc(O)c1-c1ccc(NC[C@@H]2CCCCN2)nn1` [Ex 21, (S)-3-Methyl-2-(6-((piperidin-2-ylmethyl)amino)pyridazin-3-yl)-5-(trifluoromethyl)phenol]: 48.4 nM and above 100000 nM.
The matching figures for `Cc1cc(C(F)(F)F)cc(O)c1-c1ccc(NCC(C)(C)N)nn1` [Ex 29, 2-(6-((2-Amino-2-methylpropyl)amino)pyridazin-3-yl)-3-methyl-5-(trifluoromethyl)phenol]: 169 nM and above 100000 nM.
